Columns and labels:
[1] = system: barnyardgrass; assay: Test C flooded paddy test; assay type: in vivo, Echinochloa crus-galli; conditions: Flood
Summary of the method: (§1)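 Visual injury ratings against untreated controls, taken 13 to 15 days after compound was added to paddy water standing 3 cm above the soil.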

[2] = system: crabgrass; assay: Test A pre-/postemergence greenhouse test; assay type: in vivo, Digitaria sanguinalis; conditions: for Plant response rating, Crabgrass, Large: 0 to 100 scale where 0 is no effect and 100 is complete control; for Crabgrass, Large plant response rating: 0 to 100 scale
Summary of the method: (§2)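 Herbicidal effect is a visual injury score given about ten days post-treatment by comparison with untreated controls. Preemergence plots received a directed spray onto sown loam–sand soil; postemergence plants, at the one- to two-leaf stage and 2–10 cm tall, were sprayed at the same time.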

[3] = system: redroot pigweed; assay: Test A pre-/postemergence greenhouse test; assay type: in vivo, Amaranthus retroflexus; conditions: for Plant response rating, Pigweed: 0 to 100 scale where 0 is no effect and 100 is complete control; for Pigweed plant response rating: 0 to 100 scale
Summary of the method: as §2

[4] = system: umbrella sedge; assay: Test C flooded paddy test; assay type: in vivo, Cyperus difformis; conditions: Flood
Summary of the method: as §1

[5] = system: corn; assay: Test A pre-/postemergence greenhouse test; assay type: in vivo, Zea mays; conditions: for Plant response rating, Corn: 0 to 100 scale where 0 is no effect and 100 is complete control; for Corn plant response rating: 0 to 100 scale
Summary of the method: as §2

[6] = system: barnyardgrass; assay: Test A pre-/postemergence greenhouse test; assay type: in vivo, Echinochloa crus-galli; conditions: for Plant response rating, Barnyardgrass: 0 to 100 scale where 0 is no effect and 100 is complete control; for Barnyardgrass plant response rating: 0 to 100 scale
Summary of the method: as §2

[7] = system: giant foxtail; assay: Test A pre-/postemergence greenhouse test; assay type: in vivo, Setaria faberi; conditions: for Plant response rating, Foxtail, Giant: 0 to 100 scale where 0 is no effect and 100 is complete control; for Foxtail, Giant plant response rating: 0 to 100 scale
Summary of the method: as §2

[8] = system: morningglory; assay: Test A pre-/postemergence greenhouse test; assay type: in vivo, Ipomoea spp.; conditions: for Plant response rating, Morningglory: 0 to 100 scale where 0 is no effect and 100 is complete control; for Morningglory plant response rating: 0 to 100 scale
Summary of the method: as §2

[9] = system: velvetleaf; assay: Test A pre-/postemergence greenhouse test; assay type: in vivo, Abutilon theophrasti; conditions: for Plant response rating, Velvetleaf: 0 to 100 scale where 0 is no effect and 100 is complete control; for Velvetleaf plant response rating: 0 to 100 scale
Summary of the method: as §2

[10] = system: duck salad; assay: Test C flooded paddy test; assay type: in vivo, Heteranthera limosa; conditions: Flood
Summary of the method: as §1

[11] = system: rice; assay: Test C flooded paddy test; assay type: in vivo, Oryza sativa; conditions: Flood
Summary of the method: as §1

[12] = system: wheat; assay: Test A pre-/postemergence greenhouse test; assay type: in vivo, Triticum aestivum; conditions: for Plant response rating, Wheat: 0 to 100 scale where 0 is no effect and 100 is complete control; for Wheat plant response rating: 0 to 100 scale
Summary of the method: as §2

[13] = 31 g ai/ha, scale 0 to 100 (0 no effect, 100 complete control)
[14] = 62 g ai/ha, scale 0 to 100 (0 no effect, 100 complete control)
[15] = 125 g ai/ha, scale 0 to 100, 0 no effect, 100 complete control, 13 to 15 days
[16] = 250 g ai/ha, scale 0 to 100, 0 no effect, 100 complete control, 13 to 15 days
[17] = Postemergence, 500 g ai/ha, 0 is no effect, 100 is complete control
[18] = Preemergence, 125 g ai/ha, 0 no effect, 100 complete control
[19] = Preemergence, 500 g ai/ha, 0 no effect, 100 complete control

CCOc1ccc(S(=O)(=O)Cc2c(C(F)(F)F)nn(C)c2OC(F)F)[n+]([O-])c1 [Compound 105]
50: Foxtail, Giant plant response rating [7, 19]
60: Barnyardgrass plant response rating [6, 17] | Foxtail, Giant plant response rating [7, 17]
0: Plant response rating, Barnyardgrass [1, 13] | Plant response rating, Barnyardgrass [1, 14] | Plant response rating, Barnyardgrass [1, 15] | Plant response rating, Barnyardgrass [1, 16] | Plant response rating, Pigweed ([3]; Postemergence, 125 g ai/ha) | Pigweed plant response rating [3, 17] | Pigweed plant response rating [3, 18] | Pigweed plant response rating [3, 19] | Plant response rating, Sedge, Umbrella [4, 13] | Plant response rating, Sedge, Umbrella [4, 14] | Plant response rating, Sedge, Umbrella [4, 15] | Plant response rating, Sedge, Umbrella [4, 16] | Plant response rating, Corn ([5]; Postemergence, 125 g ai/ha) | Corn plant response rating [5, 17] | Corn plant response rating [5, 18] | Corn plant response rating [5, 19] | Plant response rating, Morningglory ([8]; Postemergence, 125 g ai/ha) | Plant response rating, Velvetleaf ([9]; Postemergence, 125 g ai/ha) | Velvetleaf plant response rating [9, 17] | Velvetleaf plant response rating [9, 18] | Velvetleaf plant response rating [9, 19] | Plant response rating, Ducksalad [10, 13] | Plant response rating, Ducksalad [10, 14] | Plant response rating, Ducksalad [10, 15] | Plant response rating, Ducksalad [10, 16] | Plant response rating, Rice [11, 13] | Plant response rating, Rice [11, 14] | Plant response rating, Rice [11, 15] | Plant response rating, Rice [11, 16] | Plant response rating, Wheat ([12]; Postemergence, 125 g ai/ha) | Wheat plant response rating [12, 17] | Wheat plant response rating [12, 18] | Wheat plant response rating [12, 19]
30: Barnyardgrass plant response rating [6, 19] | Morningglory plant response rating [8, 17]
40: Crabgrass, Large plant response rating [2, 18] | Foxtail, Giant plant response rating [7, 18] | Morningglory plant response rating [8, 19]
10: Plant response rating, Crabgrass, Large ([2]; Postemergence, 125 g ai/ha) | Plant response rating, Barnyardgrass ([6]; Postemergence, 125 g ai/ha) | Barnyardgrass plant response rating [6, 18] | Plant response rating, Foxtail, Giant ([7]; Postemergence, 125 g ai/ha) | Morningglory plant response rating [8, 18]
70: Crabgrass, Large plant response rating [2, 17] | Crabgrass, Large plant response rating [2, 19]

Cn1nc(OC(F)F)c(C[S+]([O-])c2cccc[n+]2[O-])c1C(F)(F)F (stereo not shown) [Compound 74]
20: Morningglory plant response rating [8, 18] | Plant response rating, Velvetleaf ([9]; Postemergence, 125 g ai/ha) | Plant response rating, Wheat ([12]; Postemergence, 125 g ai/ha)
40: Plant response rating, Crabgrass, Large ([2]; Postemergence, 125 g ai/ha) | Plant response rating, Morningglory ([8]; Postemergence, 125 g ai/ha)
60: Crabgrass, Large plant response rating [2, 18] | Pigweed plant response rating [3, 17] | Pigweed plant response rating [3, 18] | Corn plant response rating [5, 17] | Plant response rating, Foxtail, Giant ([7]; Postemergence, 125 g ai/ha) | Plant response rating, Velvetleaf ([9]; Preemergence, 500 g ai/ha) | Wheat plant response rating [12, 17]
65: Plant response rating, Ducksalad [10, 16]
90: Plant response rating, Crabgrass, Large ([2]; Preemergence, 500 g ai/ha) | Plant response rating, Barnyardgrass ([6]; Preemergence, 500 g ai/ha) | Foxtail, Giant plant response rating [7, 17] | Plant response rating, Foxtail, Giant ([7]; Preemergence, 500 g ai/ha) | Plant response rating, Morningglory ([8]; Preemergence, 500 g ai/ha) | Plant response rating, Wheat ([12]; Preemergence, 500 g ai/ha)
15: Plant response rating, Barnyardgrass [1, 14]
50: Plant response rating, Pigweed ([3]; Postemergence, 125 g ai/ha) | Plant response rating, Sedge, Umbrella [4, 16] | Plant response rating, Barnyardgrass ([6]; Postemergence, 125 g ai/ha)
70: Plant response rating, Pigweed ([3]; Preemergence, 500 g ai/ha) | Barnyardgrass plant response rating [6, 18] | Velvetleaf plant response rating [9, 17] | Plant response rating, Ducksalad [10, 14]
80: Crabgrass, Large plant response rating [2, 17] | Plant response rating, Corn ([5]; Preemergence, 500 g ai/ha) | Barnyardgrass plant response rating [6, 17] | Foxtail, Giant plant response rating [7, 18] | Morningglory plant response rating [8, 17]
0: Plant response rating, Sedge, Umbrella [4, 14] | Plant response rating, Corn ([5]; Postemergence, 125 g ai/ha) | Corn plant response rating [5, 18] | Velvetleaf plant response rating [9, 18] | Wheat plant response rating [12, 18]
10: Plant response rating, Rice [11, 14] | Plant response rating, Rice [11, 16]
30: Plant response rating, Barnyardgrass [1, 16]
